Laboratory results published in US20250152719A1, “FUSED IMIDE DERIVATIVE” (Chia Tai Tianqing Pharmaceutical Group Co., Ltd., priority 2021, published 2025).
Where two headings read alike, the source gives them in different places.

What was measured:
[1] = In vitro liver microsomal stability, human; format: in vitro ADME; conditions: 0.5 mg/mL microsomes, NADPH, 37° C., 1 h
Description: (§2) Liver microsome incubation samples were prepared by mixing a PBS buffer (pH 7.4), a liver microsome solution (0.5 mg/mL), a test compound, and an NADPH+MgCl2 solution and incubated at 37° C. and 300 rpm for 1 h. Zero-hour samples were prepared by mixing a PBS buffer (pH 7.4), a liver microsome solution (0.5 mg/mL), and a test compound. An acetonitrile solution containing an internal standard was added to the samples, and supernatants were prepared by protein precipitation, diluted, and then assayed by LC/MS/MS.

[2] = In vitro liver microsomal stability, mouse; conditions: 0.5 mg/mL microsomes, NADPH, 37° C., 1 h
Description: as §2

[3] = target: BTK (Homo sapiens (Human), UniProt Q06187); test: BTK degradation in OCI-LY10 cells (Total-BTK HTRF kit); format: cell-based; conditions: 24 (or 6) h incubation; for Dmax: OCI-Ly10, OCI-LY10 cells; for Dmax / BTK degradation in OCI-LY10 cells Dmax: maximum degradation rate; for BTK degradation in OCI-LY10 cells Dmax / DC50: OCI-LY10 cells; for DC50: DC50 = concentration when degradation rate reaches 50%, read-out: OCI-LY10 cell BTK degradation DC50
Description: The detection was carried out using the Total-BTK Kits (cisbio, 63ADK064PEH), and 4× Supplemented Lysis buffer was prepared using the Blocking reagent stock solution (100×) and Lysis buffer stock solution (4×). Premixed antibody solutions were prepared using the Detection buffer, Total-BTK d2 antibody, and Total-BTK Eu Cryptate antibody.
OCI-LY10 cells in a good growth state were collected and added to a centrifuge tube, adjusted to a cell density of 4.17×10^6 cells/mL, and seeded in a 384-well plate (12 μL/well). The cells were incubated overnight in a cell incubator. Compounds were added using a nanoliter pipettor such that the final concentrations of the compounds were 100 nM-0.098 nM; the addition was performed in duplicate, and meanwhile, a control was set. After another 24 (or 6) h of incubation in the cell incubator, the 4× Supplemented Lysis buffer was added at 4 μL/well to lyse the cells. After the cells were shaken for 40 min at room temperature, the Premixed antibody solutions were added at 4 μL/well, and the cells were left to stand overnight at room temperature. Fluorescence values of the cells were detected at 665 nm/620 nm using an Envision microplate reader, the four-parameter analysis was performed, the dose-response curves were fit, and DC50 (the concentration of the drug when the degradation rate reaches 50%) and Dmax (the maximum degradation rate) were calculated.

[4] = test system: OCI-LY10-BTK(C481S) cells; test: Inhibitory activity on OCI-LY10-BTK(C481S) cell proliferation (CCK-8); format: cell-based; conditions: 72 h incubation, IC50 per method, unit inferred
Description: OCI-LY10(C481S) cells in the logarithmic growth phase were collected and added to a centrifuge tube, adjusted to a cell density of 5×10^4 cells/mL, and seeded in a 96-well plate (100 μL/well). Meanwhile, compounds were added using a nanoliter pipettor such that the final concentrations of the compounds were 5000 nM-0.31 nM; the addition was performed in duplicate, and meanwhile, a control was set. After another 72 h of incubation in the cell incubator, the detection reagent CCK-8 (manufacturer: Dojindo Laboratories, Beijing; 10 μL/well) was added. After 3 h of incubation in the cell incubator, absorbance values were detected at 450 nm using a PerkinElmer Envision microplate reader, the four-parameter analysis was performed, the dose-response curves were fit, and IC50 was calculated.

[5] = test system: TMD8-BTK(C481S) cells; test: Inhibitory activity on TMD8-BTK(C481S) cell proliferation (CCK-8); format: cell-based; conditions: 72 h incubation
Description: (§1) TMD8-BTK(C481S) cells in a good growth state were collected and added to a centrifuge tube, adjusted to a cell density of 8×10^4 cells/mL, and seeded in a 96-well plate (100 μL/well). The cells were incubated overnight in a cell incubator. Compounds were added using a nanoliter pipettor such that the final concentrations of the compounds were 5000 nM-0.31 nM; the addition was performed in duplicate, and meanwhile, a control was set. After another 72 h of incubation in the cell incubator, 10 μL of CCK-8 (CK04, PP799) was added. After 4 h of incubation in the cell incubator, absorbance values were detected at 450 nm using an Envision microplate reader, the four-parameter analysis was performed, the dose-response curves were fit, and IC50 was calculated.

[6] = Mouse pharmacokinetics; format: in vivo, ICR mice
Description: ICR mice weighing 18-22 g were randomized into groups of 9 after 3-5 days of acclimatization and then intragastrically given the test compound solution at a dose of 10 mg/kg. Plasma samples to be tested were prepared by taking blood from the orbit at time points of 15 min, 30 min, 1 h, 2 h, 3 h, 4 h, 6 h, 8 h, 10 h, and 24 h. 20 μL of each plasma sample to be detected and a standard curve sample were taken, and an acetonitrile solution containing an internal standard was added. […] Pharmacokinetic parameters were fitted using a non-compartmental model (see Table 5).

[7] = test system: OCI-LY10 cells; test: Inhibitory activity on OCI-LY10 cell proliferation (CCK-8); format: cell-based
Description: as §1, with “OCI-LY10 cells” for “TMD8-BTK(C481S) cells”, “of 1×10^5” for “of 8×10^4”, “After 2.5” for “After 4”

[8] = test system: TMD-8 xenograft tumors; test: In vivo drug efficacy, TMD-8 mouse subcutaneous xenograft tumors; design: species or system NOD-SCID mice; conditions: 30 mg/kg, qd, i.g.; for TGI d 17: 16 days, tumor weight on day 17; for TV on d 0 Mean ± SD: day 0 (baseline at grouping); for TV on d 12 Mean ± SD: day 12; for TV on d 15 Mean ± SD: day 15
Description: TMD-8 mouse subcutaneous xenograft tumors: TMD-8 (WT) cells at a concentration of 1×10^8/mL were inoculated under aseptic conditions into the right side armpit of NOD-SCID mice at 0.1 mL/mouse. After subcutaneous grafting, the animals were divided into groups with 6 animals in each group when the tumor volume reached about 188 mm^3 (or 200 mm^3):
model group: vehicle, 6 mice; compound administration groups: 30 mg/kg, qd, i.g., 6 mice.
The vehicle or the test compound was intragastrically given at a volume of 4 mL/kg, once daily for 16 consecutive days. The tumor volume was measured 2-3 times a week, and meanwhile, the mice were weighed and the data were recorded; the general behaviors of the animals were observed every day. After all dosing was complete, the animals were sacrificed on day 17, and the tumors were removed and weighed.
The tumor volume and the tumor growth inhibition were calculated using the following formulae:
Tumor volume (TV)=(Length×Width^2)/2.
Tumor growth inhibition (TGI)=(1−tumor weight of treatment group/tumor weight of model group)×100%.

[9] = ICR, mouse, plasma, iv, 1 mg/kg, Mouse i.v. 1 mpk
[10] = ICR, mouse, plasma, iv, 1 mg/kg, Mouse i.v. 1 mpk, read-out: AUC
[11] = ICR, mouse, plasma, po, 10 mg/kg, Mouse i.g. 10 mpk
[12] = ICR, mouse, plasma, po, 10 mg/kg, Mouse i.g. 10 mpk, read-out: AUC
[13] = ICR, mouse, plasma, po, 10 mg/kg, Mouse i.g. 10 mpk, read-out: Cmax
[14] = Homo sapiens, OCI-Ly10, 72 h incubation

BTK, sequence (Q06187 whole entry): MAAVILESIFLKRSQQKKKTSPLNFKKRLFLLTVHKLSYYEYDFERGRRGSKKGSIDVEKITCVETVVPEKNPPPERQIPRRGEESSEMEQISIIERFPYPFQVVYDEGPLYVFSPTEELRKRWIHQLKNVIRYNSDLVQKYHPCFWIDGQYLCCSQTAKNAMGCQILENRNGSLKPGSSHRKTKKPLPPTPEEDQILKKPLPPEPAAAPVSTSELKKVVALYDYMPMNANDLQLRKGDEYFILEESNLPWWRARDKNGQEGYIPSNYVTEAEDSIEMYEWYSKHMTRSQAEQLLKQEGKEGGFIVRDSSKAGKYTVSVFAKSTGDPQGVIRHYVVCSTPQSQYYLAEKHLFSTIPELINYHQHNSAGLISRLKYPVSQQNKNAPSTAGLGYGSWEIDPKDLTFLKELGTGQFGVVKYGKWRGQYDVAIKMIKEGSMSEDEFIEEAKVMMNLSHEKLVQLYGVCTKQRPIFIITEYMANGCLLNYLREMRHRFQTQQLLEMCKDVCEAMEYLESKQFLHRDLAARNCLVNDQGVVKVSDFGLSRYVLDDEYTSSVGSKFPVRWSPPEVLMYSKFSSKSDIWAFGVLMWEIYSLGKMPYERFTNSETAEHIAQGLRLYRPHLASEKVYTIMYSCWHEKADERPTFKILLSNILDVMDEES

Row | Human liver microsome Residuals at 60 min [1] [%] | Mouse liver microsome Residuals at 60 min [2] [%] | Dmax [3] [%] | IC50 [7, 14] [nM] | DC50 [3] [nM] | SMILES | IC50 ([5]; 72 h) [nM] | TGI d 17 [8] [%] | TV on d 0 Mean ± SD [8] [mm^3] | TV on d 12 Mean ± SD [8] [mm^3] | TV on d 15 Mean ± SD [8] [mm^3] | further results
1 | 53.0 | 72.0 | > 90 |  |  | CN1CCN([C@@H]2CCCN(c3cnc(C(N)=O)c(Nc4ccc(C5CCN(C6CN(c7cc8onc(C9CCC(=O)NC9=O)c8c8ccccc78)C6)CC5)cc4)n3)C2)C1=O (some centres unmarked) [Compound 93] |  |  |  |  |  | IC50 ([4]; 72 h): 0.7 nM
2 |  | 54.63 |  |  |  | CN1CCN([C@@H]2CCCN(c3cnc(C(N)=O)c(Nc4ccc(C5CCN(CC6Cc7ccc8c(C9CCC(=O)NC9=O)noc8c7C6)CC5)cc4)n3)C2)C1=O (some centres unmarked) [Compound 90] |  |  |  |  |  | IC50 [5]: 1.2 nM; AUC ([6]; Mouse i.g. 10 mpk): 18944 ng·h/mL; Cmax ([6]; Mouse i.g. 10 mpk): 2550 ng/mL; F ([6]; Mouse i.g. 10 mpk): 21.0%; t1/2 ([6]; Mouse i.g. 10 mpk): 3 h; AUC ([6]; Mouse i.v. 1 mpk): 8882 ng·h/mL; Cl ([6]; Mouse i.v. 1 mpk): 1.83 mL/min/kg; t1/2 ([6]; Mouse i.v. 1 mpk): 2.7 h; IC50 ([7]; 72 h incubation): < 0.31 nM; BTK degradation in OCI-LY10 cells Dmax [3]: >90%
3 | 94.0 |  | > 90 |  |  | NC(=O)c1ncc(N2CCCCC2)nc1Nc1ccc(N2CCC(CN3CCc4ccc5c(C6CCC(=O)NC6=O)noc5c4CC3)CC2)cc1 (centres unmarked) [Compound 72] | 2.6 | 97.9 | 226 ± 21 | 246 ± 52 | 122 ± 78 | clearance [6, 9]: 12 mL/min/kg; half-life [6, 9]: 2.3 h; AUC [6, 10]: 1290 ng·h/mL; half-life [6, 11]: 4.6 h; AUC [6, 12]: 8300 ng·h/mL; Cmax [6, 13]: 634 ng/mL; F ([6]; Mouse i.g. 10 mpk): 64.50%
4 |  | 54.7 | 99 | < 0.31 | < 0.098 | CN1CCN([C@@H]2CCCN(c3cnc(C(N)=O)c(Nc4ccc(C5CCN(CC6CCN(c7ccc8c(C9CCC(=O)NC9=O)noc8c7)CC6)CC5)cc4)n3)C2)C1=O (some centres unmarked) [Compound 8] | 6.9 |  |  |  |  | 
5 | 81.0 | 75.0 | > 90 | < 0.31 |  | NC(=O)c1ncc(N2CCCCC2)nc1Nc1ccc(C2CCN(CC3CN(c4ccc5c(C6CCC(=O)NC6=O)noc5c4)C3)CC2)cc1 (centres unmarked) [Compound 94] |  |  |  |  |  | IC50 ([4]; 72 h): 0.53 nM
6 |  |  |  |  |  | NC(=O)c1ncc(N2CCCCC2)nc1Nc1ccc(C2CCN(C[C@@H]3CC[C@H](n4ccc5c6c(C7CCC(=O)NC7=O)noc6ccc54)C3)CC2)cc1 (some centres unmarked) [Compound 105] | 6.9 | 95.4 | 226 ± 28 | 253 ± 36 | 229 ± 49 | 
7 |  |  |  |  |  | NC(=O)c1ncc(N2CCCCC2)nc1Nc1ccc(C2CCN(C[C@@H]3CC[C@@H](n4ccc5c6c(C7CCC(=O)NC7=O)noc6ccc54)C3)CC2)cc1 (some centres unmarked) [Compound 104] | 16 | 96.0 | 226 ± 27 | 286 ± 77 | 269 ± 61 | 
8 | 80.0 | 85.0 |  |  |  | NC(=O)c1ncc(N2CCCCC2)nc1Nc1ccc(C2CCN(C3Cc4ccc5c(C6CCC(=O)NC6=O)noc5c4C3)CC2)cc1 (centres unmarked) [Compound 69] |  | 96.4 | 226 ± 21 | 246 ± 56 | 199 ± 72 | IC50 [5]: 5.7 nM; clearance [6, 9]: 2 mL/min/kg; half-life [6, 9]: 2.6 h; AUC [6, 10]: 8030 ng·h/mL; half-life [6, 11]: 7 h; AUC [6, 12]: 41400 ng·h/mL; Cmax [6, 13]: 2730 ng/mL; F ([6]; Mouse i.g. 10 mpk): 51.6%
9 |  | 62.41 |  |  | < 0.098 | CN1CCN([C@@H]2CCCN(c3cnc(C(N)=O)c(Nc4ccc(C5CCN(C[C@@H]6CCC(c7cc8[nH]ccc8c8c(C9CCC(=O)NC9=O)noc78)C6)CC5)cc4)n3)C2)C1=O (some centres unmarked) [Compound 14] |  |  |  |  |  | IC50 ([7]; 72 h incubation): < 0.31 nM; BTK degradation in OCI-LY10 cells Dmax [3]: 100%; IC50 [4]: < 0.31 nM
10 |  | 56.41 |  |  | < 0.098 | CN1CCN([C@@H]2CCCN(c3cnc(C(N)=O)c(Nc4ccc(C5CCN(C[C@@H]6CCC(c7cc8onc(C9CCC(=O)NC9=O)c8c8cc[nH]c78)C6)CC5)cc4)n3)C2)C1=O (some centres unmarked) [Compound 13] |  |  |  |  |  | IC50 ([7]; 72 h incubation): < 0.31 nM; BTK degradation in OCI-LY10 cells Dmax [3]: 100%; IC50 [4]: < 0.31 nM
11 |  | 42.7 | 99 | < 0.31 | < 0.098 | CN1CCN([C@@H]2CCCN(c3cnc(C(N)=O)c(Nc4ccc(C5CCN(C[C@@H]6CCC(c7ccc8c(C9CCC(=O)NC9=O)noc8c7)C6)CC5)cc4)n3)C2)C1=O (some centres unmarked) [Compound 7] |  |  |  |  |  | 
12 |  |  | > 90 | < 0.31 |  | CN1CCN([C@@H]2CCCN(c3cnc(C(N)=O)c(Nc4ccc(N5CCC(CN6Cc7ccc8c(C9CCC(=O)NC9=O)noc8c7C6)CC5)cc4)n3)C2)C1=O (some centres unmarked) [Compound 24] |  |  |  |  |  | IC50 ([4]; 72 h): 0.5 nM
